Measurements: patent US9067983B2, “Anti-inflammatory antibodies and uses therefor” (DecImmune Therapeutics, Inc., priority 2009, dated 2015)
No end group written: not given here.

System: RAG-1-/- mice
Test: human IgM-mediated myocardial injury in RAG-1-/- mice (1 h LAD occlusion, 24 h reperfusion)
Format: in vivo, mouse
Details: 400 μg hIgM i.v. with 200 μg N2 peptide or 150 μg F(ab')2, 15 min prior to occlusion; FIG. 4
Description: Prior to occlusion (15 min), 400 μg of pooled individual hIgM from 10 donors was injected i.v. into the mice with either saline or 200 μg of N2 peptide. Myocardial sections were stained with Evans blue and TTC. Myocardial infarct size is expressed as a percentage infarct of the area at risk (AAR) of the left ventricle. (B and C) RAG-1−/− mice were treated as in (A) and analyzed for hIgM deposition (B) or serum troponin-I levels (C). (D) RAG-1−/− mice were subjected to 1 h LAD occlusion and 24 h reperfusion. Prior to occlusion (15 min), 400 μg hIgM was injected i.v. into the mice with either saline or 150 μg of anti-N2 F(ab′)2 antibody (21G6) and myocardial sections were analyzed as in (A). (E) RAG-1−/− mice were treated as in (D) and analyzed for hIgM deposition. In all panels, statistical significance was evaluated by Student's t test.

## Ac-LMKNMDPLNDNV (listed as Mus sp.) [N2 peptide, self-peptide, amino acids 592-603 of Mouse NMHC-IIB]
  human IgM-mediated injury (infarct size, hIgM deposition, serum troponin-I): block human IgM-mediated injury
